Experimental data from ChEMBL document CHEMBL2094269, “WEHI/Eskitis Trypanosoma b. brucei screening data”.
Several values for one entry are separate records, joined by “and”; a condition that tells them apart may be missing. Identical values can stand only once.

What was measured:
[1] = DNDI: Cytotoxicity against human MRC-5 lung fibroblast cells.; conditions: IC50
[2] = test system: Trypanosoma brucei brucei; assay: microbe, parasite or virus in culture; type: functional, organism-based, STIB 795
Description: DNDI: Inhibition of Human African Trypanosomiasis (HAT), STIB 795, in vitro

In the case of Cc1[nH]c2ccc(OC(F)(F)F)cc2c1CCNCC1CC=CCC1 (configuration not stated), the IC50 [1] is reported as 7.85 µM and the IC50 ([2]; Trypanosoma brucei, STIB 795) is reported as 2.89 µM.
For O=C(CC(Nc1ccc2ccccc2c1)c1ccncc1)c1cccnc1 (configuration not stated), the IC50 [1] was greater than 41.7 µM and the IC50 ([2]; Trypanosoma brucei, STIB 795) was 0.827 µM.
COc1ccc(C(CC(=O)c2ccncc2)SCc2ccco2)cc1 (configuration not stated) showed an IC50 [1] greater than 41.7 µM and an IC50 ([2]; Trypanosoma brucei, STIB 795) of 4.3 µM.
Work on CN1CCN(C2Cc3ccccc3Sc3ccc(N(C)C)cc32)CC1 (configuration not stated) yielded an IC50 [1] greater than 41.7 µM and an IC50 ([2]; Trypanosoma brucei, STIB 795) of 5.04 µM.
CCOc1cc(CNCCO)cc(Cl)c1OCc1ccccc1F showed an IC50 [1] greater than 20.8 µM and an IC50 ([2]; Trypanosoma brucei, STIB 795) of 2.43 µM.
CCN1/C(=C\C=C/C2C=Cc3ccccc3N2CC)C=Cc2ccccc21 (configuration not stated) showed an IC50 [1] of 5.14 µM and an IC50 ([2]; Trypanosoma brucei, STIB 795) of 0.408 µM.
In the case of CCN(CC)CCCCN(CCc1ccccc1)Cc1ccc(O)cc1, the IC50 [1] is reported as greater than 41.7 µM and the IC50 ([2]; Trypanosoma brucei, STIB 795) is reported as 4.55 µM.
Cc1cc(C(=O)N/N=C/c2c(O)ccc3ccccc23)c2ccccc2n1 showed an IC50 [1] greater than 4.17 µM and an IC50 ([2]; Trypanosoma brucei, STIB 795) of 5.24 µM.
CCc1ccc(NS(=O)(=O)c2cc(-c3cc(C)n[nH]3)ccc2C)cc1 gave an IC50 [1] greater than 4.17 µM and an IC50 ([2]; Trypanosoma brucei, STIB 795) of 1.23 µM.
With Cc1cccc(C)c1C(O)(CC(O)CNC(C)C)c1c(C)cccc1C (configuration not stated) the IC50 [1] was greater than 41.7 µM and the IC50 ([2]; Trypanosoma brucei, STIB 795) was 4.92 µM.
In the case of CC(C)NCC(O)CC(O)(c1ccccc1)c1ccc(C(C)(C)C)cc1 (configuration not stated), the IC50 [1] is reported as greater than 20.8 µM and the IC50 ([2]; Trypanosoma brucei, STIB 795) is reported as 5.12 µM.
Molecule Cc1ccc2oc(SCC(=O)Nc3nc4ccccc4s3)nc2n1 has an IC50 [1] greater than 20.8 µM and an IC50 ([2]; Trypanosoma brucei, STIB 795) of 2.16 µM.
In the case of O=C(NC(=S)NNC(=S)N/N=C/c1ccccc1)c1ccccc1, the IC50 [1] is reported as greater than 20.8 µM and the IC50 ([2]; Trypanosoma brucei, STIB 795) is reported as 4.16 µM.
Work on CN1CCN(Cc2cn(-c3ccc(Cl)cc3)c3ccc(F)cc23)CC1 yielded an IC50 [1] greater than 41.7 µM and an IC50 ([2]; Trypanosoma brucei, STIB 795) of 5.2 µM.
With CCOc1cc2c(cc1OCC)C(/C(Cl)=C/c1ccccc1)NCC2 (configuration not stated) the IC50 [1] was greater than 41.7 µM and the IC50 ([2]; Trypanosoma brucei, STIB 795) was 5 µM.
Work on CC(CON1C(N)=NC(N)=NC1(C)C)Cc1cc(Cl)ccc1Cl (configuration not stated) yielded an IC50 [1] greater than 20.8 µM and an IC50 ([2]; Trypanosoma brucei, STIB 795) of 4.67 µM.
Work on COc1ccc(/C=N/NC(=O)C(OC)c2ccccc2)c(OC)c1OC (configuration not stated) yielded an IC50 [1] greater than 4.17 µM and an IC50 ([2]; Trypanosoma brucei, STIB 795) of 2.27 µM.
In the case of COc1ccc(/C(N)=N/OC(=O)C23CC4CC(CC(C4)C2)C3)cc1OC, the IC50 [1] is reported as greater than 41.7 µM and the IC50 ([2]; Trypanosoma brucei, STIB 795) is reported as 0.774 µM.
With CC1(C)N=C(N)N=C(N)N1OCc1ccc(F)c(-c2ccc(F)cc2)c1 the IC50 [1] was greater than 2.08 µM and the IC50 ([2]; Trypanosoma brucei, STIB 795) was no more than 1.45 µM.
Work on COc1cccc(C2=NC(c3cccnc3)NC(c3ccccc3O)C2)c1 (configuration not stated) yielded an IC50 [1] greater than 20.8 µM and an IC50 ([2]; Trypanosoma brucei, STIB 795) of 1.5 µM.
CS(=O)(=O)c1cccc(C(=O)Nc2nc(-c3ccccn3)cs2)c1 showed an IC50 [1] greater than 10.4 µM and an IC50 ([2]; Trypanosoma brucei, STIB 795) of 0.498 µM.
In the case of CC1(C)CC(N2COc3c(cc(Cl)c4cccnc34)C2)CC(C)(C)N1, the IC50 [1] is reported as greater than 20.8 µM and the IC50 ([2]; Trypanosoma brucei, STIB 795) is reported as 5.53 µM.
With COc1cc(Cl)cc2c1Sc1ccccc1CC2N1CCNCC1 (configuration not stated) the IC50 [1] was greater than 20.8 µM and the IC50 ([2]; Trypanosoma brucei, STIB 795) was 4.17 µM.
With Cc1ccnc(NC(c2ccc3cccnc3c2O)c2sccc2C)c1 (configuration not stated) the IC50 [1] was greater than 20.8 µM and the IC50 ([2]; Trypanosoma brucei, STIB 795) was 3.32 µM.
Oc1c(C(Nc2ccccn2)c2ccccc2Cl)ccc2cccnc12 (configuration not stated) gave an IC50 [1] greater than 20.8 µM and an IC50 ([2]; Trypanosoma brucei, STIB 795) of 9.28 µM.
In the case of Cc1nnc(-c2cc(S(=O)(=O)NCc3ccc4c(c3)OCO4)c[nH]2)o1, the IC50 [1] is reported as greater than 41.7 µM and the IC50 ([2]; Trypanosoma brucei, STIB 795) is reported as 5.42 µM.
CC(Cc1ccccc1)[n+]1[cH-]/c(=N\C(=N\Cc2ccccc2)N(C)C)on1 (configuration not stated) gave an IC50 [1] greater than 41.7 µM and an IC50 ([2]; Trypanosoma brucei, STIB 795) of 0.83 µM.
C=CCn1c(-c2ccccc2Cl)nn(C2CCC3OCC2O3)c1=S (configuration not stated) gave an IC50 [1] greater than 20.8 µM and an IC50 ([2]; Trypanosoma brucei, STIB 795) of 3.79 µM.
In the case of O=C(CC1(O)C(=O)Nc2ccc(Br)cc21)c1ccccc1F (configuration not stated), the IC50 [1] is reported as greater than 41.7 µM and the IC50 ([2]; Trypanosoma brucei, STIB 795) is reported as 4.54 µM.
With CC(C)(C)c1cc(/C=N/Nc2nc3ccccc3[nH]2)cc(C(C)(C)C)c1O the IC50 [1] was greater than 20.8 µM and the IC50 ([2]; Trypanosoma brucei, STIB 795) was 0.485 µM.
CN(C)CCCN(C)Cc1ccccc1Sc1ccc2ccccc2c1 gave an IC50 [1] greater than 41.7 µM and an IC50 ([2]; Trypanosoma brucei, STIB 795) of 2.57 µM.
With Cc1cc2c(c(=O)o1)C(c1ccc(Br)s1)C(C#N)=C(N)O2 (configuration not stated) the IC50 [1] was greater than 41.7 µM and the IC50 [2] was 5.05 µM and > 10.4 µM.
Work on COc1c(S(=O)(=O)c2ccc(C)c(F)c2)cnc2ccc(Cl)cc12 yielded an IC50 [1] greater than 20.8 µM and an IC50 ([2]; Trypanosoma brucei, STIB 795) of 3.1 µM.
Molecule Cc1cc(F)ccc1NC(=O)Nc1ccc(-c2noc(C3CCC3)n2)cc1 has an IC50 [1] greater than 41.7 µM and an IC50 ([2]; Trypanosoma brucei, STIB 795) of 4.73 µM.
Cc1cc(-c2ccco2)c(C#N)c(SCC(=O)c2ccc(O)c(O)c2)n1 gave an IC50 [1] greater than 41.7 µM, an IC50 [2] of 0.756 µM and an IC50 ([2]; Trypanosoma brucei, STIB 795) of 0.791 µM.
For COc1cc2nc(-c3cccnc3)nc(N3CCC[C@H]3CO)c2cc1OC, the IC50 [1] was greater than 20.8 µM and the IC50 ([2]; Trypanosoma brucei, STIB 795) was 5.31 µM.
With CCN(CC)c1ccc(/C=N\NC(=O)Cn2nnc3ccccc32)c(O)c1 the IC50 [1] was greater than 41.7 µM and the IC50 ([2]; Trypanosoma brucei, STIB 795) was 0.551 µM.
In the case of O=C(CN1C(=O)S/C(=C/c2ccccc2Cl)C1=O)N1CCOCC1, the IC50 [1] is reported as greater than 41.7 µM and the IC50 ([2]; Trypanosoma brucei, STIB 795) is reported as 5.03 µM.
CN(CCO)CC(O)Cn1c2ccc(Cl)cc2c2cc(Cl)ccc21 (configuration not stated) gave an IC50 [1] greater than 20.8 µM and an IC50 ([2]; Trypanosoma brucei, STIB 795) of 4.95 µM.
In the case of Cc1ccc(C(=O)ON=C(/C=C/c2ccccc2)/C=C/c2ccccc2)cc1, the IC50 [1] is reported as greater than 41.7 µM and the IC50 ([2]; Trypanosoma brucei, STIB 795) is reported as 1.65 µM.
For CCN(CC)CCn1c(=N)n(CC(=O)c2ccc(C)cc2)c2ccccc21, the IC50 [1] was greater than 41.7 µM, the IC50 [2] was 4.97 µM and the IC50 ([2]; Trypanosoma brucei, STIB 795) was 4.72 µM.
With N=C(Nc1nc(-c2ccccn2)cc2ccccc12)c1cccc(Cl)c1 the IC50 [1] was greater than 41.7 µM and the IC50 ([2]; Trypanosoma brucei, STIB 795) was 6.02 µM.
In the case of CCC(/C=C1\Sc2ccccc2N1C)=C\c1sc2ccccc2[n+]1C, the IC50 [1] is reported as 2.28 µM and the IC50 ([2]; Trypanosoma brucei, STIB 795) is reported as 0.403 µM.
Oc1c(CN2CCC(Cc3ccccc3)CC2)cc(Cl)c2cccnc12 showed an IC50 [1] greater than 20.8 µM and an IC50 ([2]; Trypanosoma brucei, STIB 795) of 4.68 µM.
Cc1cc2nc(N/C(N)=N/C(=O)NC3CCCCC3)nc(C)c2cc1C showed an IC50 [1] greater than 41.7 µM and an IC50 ([2]; Trypanosoma brucei, STIB 795) of 5.33 µM.
